Source: article PMC3856564 (Angewandte Chemie (International ed. in English), 2013)

Tests used:
[1] = target: PARP1 (Homo sapiens, UniProt P09874); assay: surface plasmon resonance; type: binding
[2] = target: topoisomerase (DNA) II alpha (TOP2A) (Homo sapiens, UniProt P11388); assay: surface plasmon resonance; type: binding
Sequence of topoisomerase (DNA) II alpha (TOP2A) (P11388 whole entry): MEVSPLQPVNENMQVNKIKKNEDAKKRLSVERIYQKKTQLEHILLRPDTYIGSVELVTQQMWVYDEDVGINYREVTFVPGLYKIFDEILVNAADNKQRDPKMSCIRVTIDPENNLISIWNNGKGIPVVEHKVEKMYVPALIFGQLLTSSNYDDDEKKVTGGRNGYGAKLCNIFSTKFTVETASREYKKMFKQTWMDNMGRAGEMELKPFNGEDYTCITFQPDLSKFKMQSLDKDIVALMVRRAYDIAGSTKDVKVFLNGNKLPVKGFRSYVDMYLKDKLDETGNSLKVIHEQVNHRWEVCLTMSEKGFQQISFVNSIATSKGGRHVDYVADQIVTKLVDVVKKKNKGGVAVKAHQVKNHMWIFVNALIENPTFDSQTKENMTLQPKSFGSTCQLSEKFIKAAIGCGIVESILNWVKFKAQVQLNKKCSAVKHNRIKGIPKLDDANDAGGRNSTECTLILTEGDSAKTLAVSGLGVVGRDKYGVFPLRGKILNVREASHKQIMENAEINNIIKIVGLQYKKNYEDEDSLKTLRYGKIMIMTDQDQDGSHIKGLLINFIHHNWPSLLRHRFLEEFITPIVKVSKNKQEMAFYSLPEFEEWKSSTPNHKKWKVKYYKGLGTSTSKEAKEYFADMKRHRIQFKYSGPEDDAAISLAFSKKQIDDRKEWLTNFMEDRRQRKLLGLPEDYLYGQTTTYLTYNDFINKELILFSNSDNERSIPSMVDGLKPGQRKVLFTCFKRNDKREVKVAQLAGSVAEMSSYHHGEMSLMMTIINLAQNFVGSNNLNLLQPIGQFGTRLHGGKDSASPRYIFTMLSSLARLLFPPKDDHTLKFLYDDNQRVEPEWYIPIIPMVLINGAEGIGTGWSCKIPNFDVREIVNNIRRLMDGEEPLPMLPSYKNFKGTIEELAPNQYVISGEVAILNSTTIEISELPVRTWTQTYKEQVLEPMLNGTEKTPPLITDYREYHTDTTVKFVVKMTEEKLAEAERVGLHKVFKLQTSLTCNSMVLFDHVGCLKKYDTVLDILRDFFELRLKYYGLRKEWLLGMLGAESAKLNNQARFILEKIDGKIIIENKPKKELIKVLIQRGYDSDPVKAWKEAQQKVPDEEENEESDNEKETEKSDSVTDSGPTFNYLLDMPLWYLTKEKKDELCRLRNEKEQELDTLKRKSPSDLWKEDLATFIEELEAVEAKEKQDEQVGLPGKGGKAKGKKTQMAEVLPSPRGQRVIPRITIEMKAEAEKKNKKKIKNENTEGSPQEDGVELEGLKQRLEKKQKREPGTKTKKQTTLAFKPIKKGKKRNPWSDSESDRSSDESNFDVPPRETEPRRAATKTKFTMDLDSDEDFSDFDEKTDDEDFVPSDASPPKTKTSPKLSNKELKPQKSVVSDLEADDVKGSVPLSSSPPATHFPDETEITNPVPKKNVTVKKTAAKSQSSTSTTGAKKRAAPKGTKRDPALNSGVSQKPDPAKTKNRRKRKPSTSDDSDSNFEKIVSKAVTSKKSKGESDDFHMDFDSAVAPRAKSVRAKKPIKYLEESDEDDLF

Sequence of PARP1 (P09874 2-1014): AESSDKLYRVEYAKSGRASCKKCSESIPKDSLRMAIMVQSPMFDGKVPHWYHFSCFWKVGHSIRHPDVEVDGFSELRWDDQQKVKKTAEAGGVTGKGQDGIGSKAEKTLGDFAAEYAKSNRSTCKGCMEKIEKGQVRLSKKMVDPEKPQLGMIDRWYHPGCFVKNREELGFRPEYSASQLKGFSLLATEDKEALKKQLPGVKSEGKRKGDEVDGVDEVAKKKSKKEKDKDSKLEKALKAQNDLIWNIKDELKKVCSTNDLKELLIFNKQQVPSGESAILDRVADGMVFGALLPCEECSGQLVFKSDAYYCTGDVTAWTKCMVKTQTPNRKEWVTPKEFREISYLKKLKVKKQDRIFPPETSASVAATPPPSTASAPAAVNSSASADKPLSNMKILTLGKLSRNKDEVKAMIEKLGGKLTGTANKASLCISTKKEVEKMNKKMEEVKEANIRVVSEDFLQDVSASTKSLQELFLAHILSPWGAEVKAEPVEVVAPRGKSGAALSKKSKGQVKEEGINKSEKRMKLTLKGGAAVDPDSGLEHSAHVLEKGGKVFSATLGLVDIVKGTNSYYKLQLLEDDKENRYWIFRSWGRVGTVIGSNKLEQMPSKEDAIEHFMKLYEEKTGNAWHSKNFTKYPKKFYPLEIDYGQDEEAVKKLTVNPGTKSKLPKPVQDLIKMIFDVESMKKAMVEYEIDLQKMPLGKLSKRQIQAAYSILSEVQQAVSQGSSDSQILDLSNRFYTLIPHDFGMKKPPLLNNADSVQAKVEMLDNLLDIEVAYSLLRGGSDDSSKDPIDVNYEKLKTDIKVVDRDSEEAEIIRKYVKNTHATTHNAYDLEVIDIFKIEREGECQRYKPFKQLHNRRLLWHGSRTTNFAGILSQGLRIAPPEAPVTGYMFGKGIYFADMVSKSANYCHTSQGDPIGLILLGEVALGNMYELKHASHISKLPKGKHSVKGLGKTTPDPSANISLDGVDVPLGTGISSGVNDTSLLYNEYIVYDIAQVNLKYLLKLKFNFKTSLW

For Olaparib-TCO, the Kd [1] was 22 nM and the Kd [2] was ~3.7 nM.
